In ChEMBL document CHEMBL5678811 (Invest New Drugs, 2014):
The source made the active and inactive calls. The calls are words filed in the database; no cut-off is given here.

Assays:
MV4-11 [1] = test: Cell cycle arrest in human MV4-11 cells assessed as accumulation of cells at S-phase at 0.32 uM measured after 24 hrs by propidium iodide staining based flow cytometry (reference value: 23.35%); assay type: functional
COLO 205 [2] = details: Homo sapiens, dose 50.0 mg/kg, route po, time > 3.0 weeks
Description: Antitumor activity against human COLO 205 cells xenografted in CD1 nu/nu mouse assessed as tumor growth inhibition at 50 mg/kg, po administered daily via gavage for 2 cycles of over 3 weeks on/1 week rest

MV4-11 [3] = test: Cell cycle arrest in human MV4-11 cells assessed as accumulation of cells at G1-phase at […] measured after 24 hrs by propidium iodide staining based flow cytometry (reference value: 61.42%); assay type: functional; details: dose 0.625 µM
[4] = target: Cyclin-dependent kinase 5/CDK5 activator 1 (Homo sapiens) (UniProt Q00535+Q15078); details: Sf21, dose 200.0 nM
Description: Inhibition of recombinant human full-length N-terminal His6-tagged cdk5/N-terminal GST-tagged p35 expressed in baculovirus infected Sf21 cells at 200 nM using histone H1 as substrate relative to control

MV4-11 [5] = test: Cell cycle arrest in human MV4-11 cells assessed as accumulation of cells at G1-phase at 0.16 uM measured after 24 hrs by propidium iodide staining based flow cytometry (reference value: 61.42%); assay type: functional
Mus musculus [6] = organism: Mus musculus; details: CD1, dose 50.0 mg/kg, route po, time 22.0 day
MV4-11 [7] = test: Cell cycle arrest in human MV4-11 cells assessed as accumulation of cells at S-phase at 0.04 uM measured after 24 hrs by propidium iodide staining based flow cytometry (reference value: 23.35%); assay type: functional
MDA-MB-231 = test: Cell cycle arrest in human MDA-MB-231 cells assessed as accumulation of cells at G2/M-phase at 2.5 uM measured after 24 hrs by propidium iodide staining based flow cytometry (reference value: 11.46%); assay type: functional
COLO 205 [8] = details: Mus musculus, CD1, dose 50.0 mg/kg, route po, time lower 1.0 hrs, time upper […], TDE = time-dependent effect
COLO 205 [9] = details: Mus musculus, CD1, dose 50.0 mg/kg, route po
Mus musculus [10] = organism: Mus musculus; details: CD1, dose 50.0 mg/kg, route po, time 17.0 day
MV4-11 [11] = test: Cell cycle arrest in human MV4-11 cells assessed as accumulation of cells at S-phase at 0.16 uM measured after 24 hrs by propidium iodide staining based flow cytometry (reference value: 23.35%); assay type: functional
[12] = Toxicity in human COLO 205 cells xenografted CD1 nu/nu mouse assessed as change in jejunum histology at 50 mg/kg, po administered daily via gavage for 56 days and measured on day 41 to 69 by histopathological analysis; assay type: organism-based; details: in vivo, 1344 h, time 41-69 day

Chain of Cyclin-dependent kinase 5/CDK5 activator 1 (Homo sapiens) (Q00535 whole entry): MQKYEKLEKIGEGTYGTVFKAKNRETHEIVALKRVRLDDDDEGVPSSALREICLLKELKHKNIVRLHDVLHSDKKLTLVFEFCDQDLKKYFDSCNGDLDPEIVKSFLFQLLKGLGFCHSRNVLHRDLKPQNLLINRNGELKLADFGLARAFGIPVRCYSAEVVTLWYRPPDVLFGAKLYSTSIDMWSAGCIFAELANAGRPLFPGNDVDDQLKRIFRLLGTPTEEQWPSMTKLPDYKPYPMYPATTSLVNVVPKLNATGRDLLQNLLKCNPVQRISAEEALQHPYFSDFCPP
Chain of Cyclin-dependent kinase 5/CDK5 activator 1 (Homo sapiens) (Q15078 99-307 partner limits assumed): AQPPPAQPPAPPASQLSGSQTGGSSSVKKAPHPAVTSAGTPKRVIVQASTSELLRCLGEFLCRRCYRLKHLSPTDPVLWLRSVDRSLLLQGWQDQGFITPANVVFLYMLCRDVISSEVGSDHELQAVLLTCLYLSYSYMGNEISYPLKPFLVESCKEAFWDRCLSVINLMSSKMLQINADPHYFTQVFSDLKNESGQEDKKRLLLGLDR

CCN1CCN(Cc2ccc(Nc3ncc(F)c(-c4cc(F)c5nc(C)n(C(C)C)c5c4)n3)nc2)CC1 [ABEMACICLIB]
Activity (MV4-11 [1]): 2.68% | TGI (COLO 205 [2]): Active | Activity (MV4-11 [3]): 94.63% | inhibition [4]: > 90% | Activity (MV4-11 [5]): 92.68% | inhibition (Mus musculus [6]): inactive | Activity (MV4-11 [7]): 16.32% | Activity (MDA-MB-231): 5.77% | inhibition (COLO 205 [8]): Tde | inhibition (COLO 205 [9]): inactive | inhibition (Mus musculus [10]): inactive | Activity (MV4-11 [11]): 4.59% | Activity [12]: Non-Toxic
